The text below walks through data of PubChem BioAssay (NCI).

Test systems include A498 renal; CAKI-1 renal; HOP-62 NSCLC; LOX IMVI melanoma; NCI/ADR-RES ovarian; UO-31 renal; HCT-116 colon; OVCAR-4 ovarian; SK-MEL-28 melanoma; UACC-257 melanoma.
Common to all, as to test: NCI-60 cell line screen, 48 h

Each structure is given as a SMILES string.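 How tested: cells in 96-well plates exposed to compound for 48 hours at five concentrations. Abbreviation: GI50, concentration required for 50% inhibition of growth. TGI: total growth inhibition.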

Regarding `COc1cc(-c2nc(-c3nnc(-c4ccc(F)c(Cl)c4)o3)c3ccccn23)cc(OC)c1OC`, the GI50 was 1.55 µM with A498 renal; 5.46 µM with CAKI-1 renal; 2.19 µM with HOP-62 NSCLC; 3.83 µM with LOX IMVI melanoma; 1.88 µM in the assay on NCI/ADR-RES ovarian; 2.2 µM with UO-31 renal. Moreover, the TGI in the assay on A498 renal is 6.76 µM; with CAKI-1 renal, above 100 µM; in the assay with HOP-62 NSCLC it was 4.57 µM; in the assay with LOX IMVI melanoma, above 100 µM; in the assay on NCI/ADR-RES ovarian, 5.24 µM; in the assay on UO-31 renal, 7.64 µM.
Take `[C-]#[O+].[C-]#[O+].[Ir].[O-]c1ccc2ccccc2c1N=Nc1ccccc1`: the TGI was 33.3 µM in the assay with A498 renal; 22.7 µM in the assay with CAKI-1 renal; 24.7 µM in the assay on HCT-116 colon; above 100 µM in the assay on HOP-62 NSCLC; 24.6 µM with LOX IMVI melanoma; 51.8 µM with NCI/ADR-RES ovarian. The TGI came to 24.7 µM in the assay with OVCAR-4 ovarian, 24.7 µM with SK-MEL-28 melanoma, 14.4 µM in the assay with UACC-257 melanoma and 24.4 µM with UO-31 renal.
In the case of `CCCCCCCCCCCCOC1C(CNCC2OC3OC(C)(C)OC3C2NC(=O)Nc2ccc(C(F)(F)F)cc2)OC2OC(C)(C)OC21` (centres undefined), the GI50 in the assay with A498 renal is 8.45 µM; with CAKI-1 renal, 7.41 µM; in the assay on HCT-116 colon, 2.46 µM; in the assay with HOP-62 NSCLC, 8.1 µM; in the assay with LOX IMVI melanoma, 2.89 µM; in the assay with NCI/ADR-RES ovarian it was 8.44 µM. Moreover, the GI50 is 5.43 µM in the assay on OVCAR-4 ovarian, 7.28 µM with SK-MEL-28 melanoma, 8.62 µM in the assay with UACC-257 melanoma and 7.33 µM in the assay on UO-31 renal. Moreover, the TGI with A498 renal is 15.5 µM; with CAKI-1 renal it was 15.1 µM; in the assay on HCT-116 colon, 4.7 µM; in the assay on HOP-62 NSCLC it was 15.1 µM; in the assay on LOX IMVI melanoma it was 5.65 µM; with NCI/ADR-RES ovarian, 17.1 µM. The TGI with OVCAR-4 ovarian was 13.2 µM; in the assay with SK-MEL-28 melanoma, 14.5 µM; in the assay on UACC-257 melanoma, 17.9 µM; in the assay on UO-31 renal, 16.3 µM.
With `COc1cccc2c1C(=O)c1c(O)c3c(c(O)c1C2=O)C[C@@](O)(C(=O)CO)C[C@@H]3OC1CC(OC(C)=O)C(OC(C)=O)C(C)O1` (some centres undefined), the GI50 was 0.127 µM with A498 renal; 0.18 µM with CAKI-1 renal; 0.279 µM in the assay on HCT-116 colon; 0.314 µM in the assay with HOP-62 NSCLC; 0.284 µM with LOX IMVI melanoma; 0.552 µM in the assay on NCI/ADR-RES ovarian. Moreover, the GI50 in the assay on OVCAR-4 ovarian was 2.24 µM; in the assay on SK-MEL-28 melanoma it was 1.39 µM; in the assay with UACC-257 melanoma, 1.37 µM; with UO-31 renal it was 0.258 µM. Further, the TGI was 1.62 µM in the assay on A498 renal; 1.44 µM in the assay on CAKI-1 renal; 1.89 µM in the assay on HCT-116 colon; 2.27 µM with HOP-62 NSCLC; above 20 µM in the assay with LOX IMVI melanoma; above 39.6 µM in the assay on OVCAR-4 ovarian. For the same compound, the figures for the TGI with SK-MEL-28 melanoma, in the assay with UACC-257 melanoma and in the assay with UO-31 renal were 3.2 µM, 4.25 µM and 1.99 µM, respectively.
As to `c1ccc(CCCNc2nnnc3ccccc23)cc1`, the TGI in the assay with A498 renal, in the assay with CAKI-1 renal, in the assay with HCT-116 colon, in the assay with HOP-62 NSCLC, with LOX IMVI melanoma and in the assay on NCI/ADR-RES ovarian was above 100 µM in each case. For the same compound, the TGI in the assay with OVCAR-4 ovarian, in the assay on SK-MEL-28 melanoma and in the assay with UACC-257 melanoma was above 100 µM throughout.
Regarding `Clc1nc(Cl)c2ncn(C/C=C/Cn3cnc4c(Cl)nc(Cl)nc43)c2n1`, the GI50 is 21.5 µM in the assay with A498 renal; 13.9 µM in the assay on CAKI-1 renal; 10.7 µM in the assay with HCT-116 colon; 15.6 µM in the assay on HOP-62 NSCLC; 14.9 µM in the assay with LOX IMVI melanoma; 20.1 µM in the assay on NCI/ADR-RES ovarian. In addition, the GI50 in the assay on OVCAR-4 ovarian was 20 µM; with SK-MEL-28 melanoma it was 17.5 µM; with UACC-257 melanoma it was 11 µM; in the assay with UO-31 renal, 17.9 µM. In addition, the TGI in the assay with A498 renal is 41.2 µM; in the assay on CAKI-1 renal, 28.1 µM; in the assay with HCT-116 colon, 24.4 µM; in the assay with HOP-62 NSCLC, 32.9 µM; with LOX IMVI melanoma, 28.9 µM; in the assay with NCI/ADR-RES ovarian, 44.6 µM. The TGI in the assay on OVCAR-4 ovarian came out at 34.8 µM; with SK-MEL-28 melanoma, 33 µM; with UACC-257 melanoma, 27.8 µM; with UO-31 renal it was 34.5 µM.
Regarding `FC(F)(F)c1[nH]ncc1-c1nc2c(N3CCCCC3)cc3[nH]ncc3c2c2c1CCCC2`, the GI50 in the assay with A498 renal is 0.0566 µM; in the assay with CAKI-1 renal, 0.711 µM; in the assay with HCT-116 colon, 0.432 µM; in the assay on HOP-62 NSCLC it was 0.699 µM; in the assay on LOX IMVI melanoma, 0.656 µM; in the assay on NCI/ADR-RES ovarian, 2.04 µM. Moreover, the GI50 in the assay on OVCAR-4 ovarian is 1.42 µM; in the assay on SK-MEL-28 melanoma, 0.617 µM; in the assay with UACC-257 melanoma, 1.09 µM; in the assay with UO-31 renal, 0.873 µM. Also, the TGI in the assay on A498 renal was 0.196 µM; in the assay on CAKI-1 renal it was 3.06 µM; with HCT-116 colon it was 3.57 µM; with HOP-62 NSCLC, 3.12 µM; in the assay on LOX IMVI melanoma, 1.43 µM; in the assay on NCI/ADR-RES ovarian, above 50 µM. Also, the TGI in the assay on OVCAR-4 ovarian was above 15.3 µM; in the assay with SK-MEL-28 melanoma, 1.78 µM; with UACC-257 melanoma, 3.58 µM; with UO-31 renal it was 3.01 µM.
Turning to `O=C(C[C@@]1(O)C(=O)Nc2c(Cl)ccc(Cl)c21)c1ccc(C2CC2)cc1`, the GI50 in the assay with A498 renal was 0.213 µM; in the assay with CAKI-1 renal, 0.214 µM; with HCT-116 colon, 0.437 µM; in the assay with HOP-62 NSCLC, 0.516 µM; in the assay on LOX IMVI melanoma, 0.541 µM; in the assay on NCI/ADR-RES ovarian it was 0.212 µM. The GI50 in the assay with OVCAR-4 ovarian is 6.01 µM; in the assay with SK-MEL-28 melanoma, 3.5 µM; in the assay on UACC-257 melanoma, 12.4 µM; in the assay with UO-31 renal it was 0.585 µM. The TGI in the assay with A498 renal amounted to 0.75 µM; in the assay on CAKI-1 renal, 17.2 µM; in the assay with HCT-116 colon, 11.9 µM; in the assay with HOP-62 NSCLC, 19.2 µM; with LOX IMVI melanoma, 13.9 µM; in the assay with NCI/ADR-RES ovarian, 13.9 µM. The TGI in the assay with OVCAR-4 ovarian is 39.8 µM; with SK-MEL-28 melanoma, 23.5 µM; in the assay on UACC-257 melanoma it was 41.1 µM; in the assay on UO-31 renal it was 18.5 µM.
For the compound `CNS(=O)(=O)c1ccccc1C(=N)c1ccccc1`, the TGI in the assay on A498 renal, in the assay with CAKI-1 renal, in the assay with HCT-116 colon, in the assay on HOP-62 NSCLC, in the assay on LOX IMVI melanoma and in the assay with NCI/ADR-RES ovarian was above 100 µM each time. Moreover, the TGI with OVCAR-4 ovarian, in the assay on SK-MEL-28 melanoma and in the assay on UO-31 renal was above 100 µM throughout.
